The record followed here is patent US20100304971A1, “HERBICIDAL COMBINATION” (Bayer CropScience AG, priority 2008, published 2010).

The test system of one assay is Polygonum convolvulus. The assay is described as follows: Post-emergence action against weeds, greenhouse, visual scoring. Type of assay: in vivo. The note with it: 11 days after application. As to the method:
(§1) Seeds or rhizome pieces of monocotyledonous and dicotyledonous weeds were placed in sandy loam soil in plastic pots, covered with soil and cultivated in a greenhouse under good growth conditions. Three weeks after sowing, the test plants were treated at the 2- to 4-leaf stage. The compounds according to the invention, formulated as wettable powders or as emulsion concentrates, were sprayed onto the green parts of the plants in various dosages at a water application rate of 100 to 800 I/ha (converted). After the test plants had been left to stand in the greenhouse for 10 to 28 days under optimum growth conditions, the effect of the preparations was scored visually in comparison to untreated controls.
(§2) 0%=no control 100%=complete control

A further assay has as its system Veronica persica. The description is as above. As to conditions: 11 days after application. Type of assay: in vivo. As to the method: as §1, §2

In the case of `CCSC(C)CC1CC(=O)C(/C(CC)=N/OC/C=C/Cl)=C(O)C1` (stereo not drawn) [Compound B2-3, clethodim], in the assay on Polygonum convolvulus (Table 4, 50 g of active ingredient/ha), the “Polygonum convolvulus Control in %” value is listed as 20%.
As for `CCO/N=C(\CC)C1=C(O)CC(c2c(C)cc(C)cc2C)CC1=O` (stereo not drawn) [Compound B2-8, tralkoxydim], the “Polygonum convolvulus Control in %” value with Polygonum convolvulus (Table 5, 150 g of ai/ha) was 20%.
For `CS(=O)(=O)c1ccc(C(=O)C2C(=O)CCCC2=O)c(Cl)c1COCC1CCCO1` (stereo not drawn) [Compound B3-3, tefuryltrione], the “Polygonum convolvulus Control in %” value in the assay on Polygonum convolvulus (Table 3, 100 g of active ingredient/ha) came out at 15%.
Turning to `CS(=O)(=O)c1ccc(C(=O)C2C(=O)CCCC2=O)c(Cl)c1COCC(F)(F)F` [Compound B3-4, tembotrione], in the assay with Polygonum convolvulus (Table 1, 50 g of ai/ha), the “Polygonum convolvulus Control in %” value is 45%.
On to `COCCOCc1nc(C(F)(F)F)ccc1C(=O)C1C(=O)C2CCC(C2)C1=O` (stereo not drawn) [Compound B3-5, 3-[[2-[(2-methoxyethoxy)methyl]-6-(trifluoromethyl)pyridin-3-yl]carbonyl]bicyclo[3.2.1]octane-2,4-dione], for which the “Veronica persica Control in %” value with Veronica persica (Table 2, 25 g of ai/ha) is 20%.
Turning to `CCOc1cc(Cl)cc(CC)c1C1=C(O)C2(CCC(OC)CC2)NC1=O` (stereo not drawn) [Compound B4-1, cis-3-(4-chloro-2-ethoxy-6-ethylphenyl)-4-hydroxy-8-methoxy-1-azaspiro[4.5]dec-3-en-2-one], in the assay on Polygonum convolvulus (Table 6, 7.5 g of ai/ha), the “Polygonum convolvulus Control in %” value was 20%.
As for “sodium salt of 2-iodo-N-[(4-methoxy-6-methyl-1,3,5-triazin-2-yl)carbamoyl]benzenesulfonamide [Compound A-2]”, the “Polygonum convolvulus Control in %” value was 10% with Polygonum convolvulus (Table 1, 2.5 g of ai/ha, 0%=no control, 100%=complete control); 20% with Polygonum convolvulus (Table 3, 2.5 g of active ingredient/ha); 0% in the assay with Polygonum convolvulus (Table 4, 2.5 g of active ingredient/ha); 0% in the assay with Polygonum convolvulus (Table 5, 2.5 g of ai/ha); 0% with Polygonum convolvulus (Table 6, 2.5 g of ai/ha). For the same compound, the “Veronica persica Control in %” value in the assay with Veronica persica (Table 2, 2.5 g of ai/ha, 0%=no control, 100%=complete control) came out at 5%.
